Source: patent US8053447B2, “11β-hydroxysteroid dehydrogenase type 1 active compounds” (High Point Pharmaceuticals, LLC, priority 2006, dated 2011)

These compounds were tested against T1, h-11βHSD1 (Homo sapiens, UniProt P28845) (assay: 11βHSD1 enzyme assay (scintillation proximity assay, 3H-cortisone to 3H-cortisol)). Details: extract of yeast transformed with h-11βHSD1; 120 nM 3H-cortisone, 4 mM β-NADPH, 60 min at 30° C., SPA.
T1 construct: made in house
Format: biochemical
Procedure: Pharmacological Methods 11βHSD1 Enzyme Assay Materials
^3H-cortisone and anti-rabbit Ig coated scintillation proximity assay (SPA) beads were purchased from Amersham Pharmacia Biotech, β-NADPH was from Sigma and rabbit anti-cortisol antibodies were from Fitzgerald. An extract of yeast transformed with h-11βHSD1 (Hult et al., FEBS Lett, 441, 25 (1998)) was used as the source of enzyme. The test compounds were dissolved in DMSO (10 mM). All dilutions were performed in a buffer containing 50 mM TRIS-HCl (Sigma Chemical Co), 4 mM EDTA (Sigma Chemical Co), 0.1% BSA (Sigma Chemical Co), 0.01% Tween-20 (Sigma Chemical Co) and 0.005% bacitracin (Novo Nordisk A/S), pH=7.4. Optiplate 96 wells plates were supplied by Packard. The amount of ^3H-cortisol bound to the SPA beads was measured on TopCount NXT, Packard.
h-11βHSD1, 120 nM ^3H-cortisone, 4 mM β-NADPH, antibody (1:200), serial dilutions of test compound and SPA particles (2 mg/well) were added to the wells. The reaction was initiated by mixing the different components and was allowed to proceed under shaking for 60 min at 30° C. The reaction was stopped be the addition of 10 fold excess of a stopping buffer containing 500 μM carbenoxolone and 1 μM cortisone. Data was analysed using GraphPad Prism software.

T1 sequence (P28845 whole entry): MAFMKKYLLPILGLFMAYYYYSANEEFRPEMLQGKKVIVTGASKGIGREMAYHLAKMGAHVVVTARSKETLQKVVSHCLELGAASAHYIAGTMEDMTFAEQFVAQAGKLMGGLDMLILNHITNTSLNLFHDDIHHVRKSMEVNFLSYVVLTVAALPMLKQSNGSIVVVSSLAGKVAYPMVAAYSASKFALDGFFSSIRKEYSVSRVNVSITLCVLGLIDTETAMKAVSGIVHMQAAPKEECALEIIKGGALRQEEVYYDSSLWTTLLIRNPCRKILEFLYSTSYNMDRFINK

Row | SMILES | IC50
1 | CN(C)C(=O)C1CCC(Oc2ccc(C(=O)N3CC4(C)CC3CC(C)(C)C4)cc2)CC1 (stereo not drawn) [Example 12a, 4-[4-(1,1,3,3-Trimethyl-6-aza-bicyclo[3.2.1]octane-6-carbonyl)-phenoxy]-cyclo-hexane carboxylic acid di-methylamide] | 111 nM
2 | CC(C)(C)OC(=O)N1C[C@@H]2CC1CN2c1ccc(C(=O)N2CC3CCC(CC3)C2)cc1 (stereo in doubt) [Example 1h, (1S,4S)-5-[4-(3-Aza-bicyclo[3.2.2]nonane-3-carbonyl)-phenyl]-2,5-diaza-bicyclo[2.2.1]heptane-2-carboxylic acid tert-butyl ester] | 389 nM
3 | CN(C(=O)c1ccc(OC2CCC(NC(=O)C3CC3)CC2)cc1)C1C2CC3CC1CC(O)(C3)C2 (stereo not drawn) [Example 8c, 4-[4-(Cyclopropanecarbonyl-amino)-cyclohexyloxy]-N-(5-hydroxy-adamantan-2-yl)-N-methyl-benzamide] | 1650 nM
4 | NC(=O)C1CCC(Oc2ccc(C(=O)N3CCCC4CCCCC43)cc2)CC1 (stereo not drawn) [Example 13a, 4-[4-(Octahydro-quinoline-1-carbonyl)-phenoxy]-cyclo-hexanecarboxylic acid amide] | 73 nM
5 | O=C(NC1C2CC3CC(C2)CC1C3)c1ccc(O[C@H]2CC[C@@H](NC(=O)C3CC3)CC2)cc1 (stereo partly drawn) [Example 5c, Cis-N-Adamantan-2-yl-4-[4-(cyclopropanecarbonyl-amino)-cyclohexyloxy]-benzamide] | 158 nM
6 | O=C(NC1C2CC3CC(C2)CC1C3)c1ccc(OC2CCN(C(=O)C3CC3)CC2)cc1 (stereo not drawn) [Example 1b, 4-(1-Cyclopropanecarbonyl-piperidin-4-yloxy)-N-ada-mantan-2-yl-benzamide] | 205 nM
7 | CN(C(=O)c1ccc(OCC2CCN(S(=O)(=O)c3ccccn3)CC2)cc1)C1C2CC3CC1CC(O)(C3)C2 (stereo not drawn) [Example 4f, N-(5-Hydroxy-adamantan-2-yl)-N-methyl-4-[1-(pyridine-2-sulfonyl)-piperidin-4-yl-methoxy]-benzamide] | 1360 nM
8 | Cc1ccc(S(=O)(=O)NC(=O)N2CCC(Oc3ccc(C(=O)N4CC5CCC(CC5)C4)cc3)C2)cc1 (stereo not drawn) [Example 3g, N-{3-[4-(3-Aza-bicyclo-[3.2.2]nonane-3-carbonyl)-phenoxy]-pyrrolidine-1-carbonyl}-4-methyl-benzenesulfonamide] | 2820 nM
9 | CC(C)CC(=O)N1CCC(Oc2ccc(C(=O)N3CC4CCC(CC4)C3)cc2)CC1 [Example 3b, 1-{4-[4-(3-Aza-bicyclo-[3.2.2]nonane-3-carbonyl)-phenoxy]-piperidin-1-yl}-3-methyl-butan-1-one] | 1400 nM
10 | O=C(O)C1CCC(Oc2ccc(C(=O)N3CC4CCC(CC4)C3)cc2)C1 (stereo not drawn) [Example 7a, 3-[4-(3-Aza-bicyclo[3.2.2]-nonane-3-carbonyl)-phenoxy]-cyclopentane-carboxylic acid] | 1400 nM
11 | CCOC(=O)C1CCC(Oc2ccc(C(=O)N3CC4(C)CC3CC(C)(C)C4)cc2)CC1 (stereo not drawn) [Example 1a, 4-[4-(1,3,3-Trimethyl-6-aza-bicyclo[3.2.1]octane-6-carbonyl)-phenoxy]-cyclo-hexanecarboxylic acid ethyl ester] | 130 nM
12 | O=C(NC1C2CC3CC(C2)CC1C3)c1ccc(O[C@H]2CC[C@@H](NS(=O)(=O)c3ccccn3)CC2)cc1 (stereo partly drawn) [Example 3c, Cis-N-Adamantan-2-yl-4-[4-(pyridine-2-sulfonylamino)-cyclohexyloxy]-benzamide] | 96 nM
13 | O=C(N[C@H]1CC[C@@H](Oc2ccc(C(=O)N3CCCC4CCCCC43)cc2)CC1)C1CC1 (stereo partly drawn) [Example 6c, Cis-Cyclopropanecarboxylic acid {4-[4-(octahydro-quino-line-1-carbonyl)-phenoxy]-cyclohexyl}-amide] | 120 nM
14 | CC(C)CC(=O)N1CCC(Oc2ccc(C(=O)N3CC4CCCC3C4)cc2)CC1 (stereo not drawn) [Example 5b, 1-{4-[4-(6-Aza-bicyclo[3.2.1]-octane-6-carbonyl)-phenoxy]-piperidin-1-yl}-3-methyl-butan-1-one] | 1300 nM
15 | O=C(O)c1cccc(S(=O)(=O)N2CCC(COc3ccc(C(=O)N4CCCC5CCCCC54)cc3)CC2)c1 (stereo not drawn) [Example 8f, 3-{4-[4-(Octahydro-quinoline-1-carbonyl)-phenoxymethyl]-piperidine-1-sulfonyl}-benzoic acid] | 266 nM
16 | O=C(NC1C2CC3CC(C2)CC1C3)c1ccc(OC2CCC(COn3cccn3)CC2)cc1 (stereo not drawn) [Example 2e, 4-[4-(Pyrazol-1-yl-oxy-methyl)-cyclohexyloxy]-N-adamantan-2-yl-benzamide] | 190 nM
17 | O=C(O)c1ccc(OCC2CCC(Oc3ccc(C(=O)NC4C5CC6CC(C5)CC4C6)cc3)CC2)cc1 (stereo not drawn) [Example 3e, 4-{4-[4-(Adamantan-2-yl-carbamoyl)-phenoxy]-cyclo-hexylmethoxy}-benzoic acid] | 300 nM
18 | CC1(C)CC2CC(C)(CN2C(=O)c2ccc(O[C@H]3CC[C@@H](C(=O)O)CC3)cc2)C1 (stereo partly drawn) [Example 5a, Cis-4-[4-(1,3,3-trimethyl-6-aza-bicyclo [3.2.1]octane-6-carbonyl)-phenoxy]-cyclo-hexanecarboxylic acid] | 588 nM
19 | CCS(=O)(=O)N1CCC(COc2ccc(C(=O)N(C)C3C4CC5CC3CC(O)(C5)C4)cc2)CC1 (stereo not drawn) [Example 7f, 4-(1-Ethanesulfonyl-piperidin-4-ylmethoxy)-N-(5-hydroxy-adamantan-2-yl)-N-methyl-benzamide] | 2180 nM
20 | CC1(C)CC2CC(C)(CN2C(=O)c2ccc(O[C@H]3CC[C@H](C(=O)O)CC3)cc2)C1 (stereo partly drawn) [Example 6a, Trans-4-{4-(1,3,3-trimethyl-6-aza-bicyclo [3.2.1]oct-ane6-carbonyl)-phenoxy]-cyclo-hexanecarboxylic acid] | 1200 nM
21 | CC1(C)CC2CC(C)(CN2C(=O)c2ccc(OC3CCC(C(=O)O)CC3)cc2)C1 (stereo not drawn) [Example A, 4-[4-(1,3,3-Trimethyl-6-aza-bicyclo[3.2.1]octane-6-carbonyl)-phenoxy]cyclohexanecarboxylic acid] | 360 nM
